Results taken from patent US20060263895A1, “Method for monitoring the stereoselectivity and relative rate of organic chemical reactions” (priority 2005, published 2006).

Columns and labels:
[1] = target: T1, alcohol dehydrogenase from Thermoanaerobium brockii (TBADH) (Thermoanaerobacter brockii, UniProt P14941); assay: TBADH relative velocity (enantioselectivity) and Michaelis-Menten kinetics with 1,2-propanediol; assay type: biochemical; details: for Km / Vmax: TBADH; for Km: 2.2 mM NADP+, pH 8.8, 25° C.; for Vmax: 0.113 U
T1 construct: purchased
T1 sequence (P14941 1-352): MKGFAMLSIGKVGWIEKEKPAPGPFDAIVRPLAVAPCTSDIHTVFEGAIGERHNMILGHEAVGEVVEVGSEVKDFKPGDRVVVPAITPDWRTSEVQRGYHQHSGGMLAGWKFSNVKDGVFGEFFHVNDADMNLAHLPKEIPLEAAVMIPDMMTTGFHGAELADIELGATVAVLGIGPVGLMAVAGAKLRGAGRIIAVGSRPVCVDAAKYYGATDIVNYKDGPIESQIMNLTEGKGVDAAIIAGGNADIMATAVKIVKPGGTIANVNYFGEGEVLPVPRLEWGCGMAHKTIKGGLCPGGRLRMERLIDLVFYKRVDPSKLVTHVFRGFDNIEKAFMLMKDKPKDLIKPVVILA
Description: 2. TBADH: The enantioselectivity of […] was estimated from the ratios of the initial velocities of (R)— vs. (S)-1,2-propanediol at fixed concentrations between 3.0 and 80 mM at 25° C. Each velocity measurement was performed in triplicate. The assay cuvette contained the following: 2.2 mM NADP+ (10 μL from a 220 mM stock), 0.113 U of TBADH, and various concentrations of either (R) or (S)-enantiomer of 1,2-propanediol. In all cases, the final volume was adjusted to 1 mL using 50 mM sodium pyrophosphate buffer, pH 8.8.
(§1) Indeed, this was confirmed by the determination of Km's for each antipode of 1,2-propanediol for each enzyme. For each antipodal diol, the same data as were used to survey dehydrogenase enantioselectivity, as a function of diol concentration, were plotted in Michaelis-Menten fashion, as v0 vs. [S] (FIGS. 3 and 4). For each dehydrogenase, the data curve for (R)-1,2-propanediol is shown by -▪-, and those for the (S)-enantiomer by -●-. In all four cases, the data were processed by […], least squares fitting to a hyperbolic function. The resulting curve fits and best fit hyperbolic equations are presented above.

[2] = target: T2, alcohol dehydrogenase from horse liver (HLADH) (Equus caballus, UniProt P00327); assay: HLADH relative velocity (enantioselectivity) and Michaelis-Menten kinetics with 1,2-propanediol; assay type: biochemical; details: for Km / Vmax: HLADH; for Km: 7.2 mM NAD+, pH 8.8, 25° C.; for Vmax: 0.049 U
T2 construct: purchased; host or cells: equine liver
Description: 1. HLADH: The enantioselectivity of […] was estimated from the ratios of the initial velocities of (R)— vs. (S)-1,2-propanediol at fixed concentrations between 4.0 and 100 mM at 25° C. Each velocity measurement was made in duplicate. The assay cuvette contained the following: 7.2 mM NAD+ (33 μL from a 220 mM stock), 0.049 U of HLADH, and various concentrations of either the (R)— or (S)-enantiomer of 1,2-propanediol. In all cases, the final volume was adjusted to 1 mL using 50 mM sodium pyrophosphate buffer, pH 8.8.
as §1

[3] = HKR of (±)-propylene oxide under standard neat 'Jacobsen conditions' (NMR conversion, chiral HPLC ee); details: for NMR conv. (time): 3 h; for NMR conv. (time) / % ee (HPLC): loading 0.25 mol %; for % ee of the 1,2-propanediol product, as observed by chiral HPLC (lower number): neat propylene oxide, 0.55 equiv. H2O, 0.25 mol % catalyst, 3 h reaction time
Description: Salens in the fully synthetic, 42 member focused library that led to catalysts with appreciable activity, as indicated by double cuvette-ISES, were also evaluated ‘outside of the cuvette,’ under conditions more typically employed in HKR reactions. Specifically, these Co(III)-salen catalysts were evaluated in the HKR of (±)-propylene oxide, under neat conditions, similar to those described by Jacobsen and coworkers. Reactions were arbitrarily stopped after 3 hours, to obtain the enantiopurity of the 1,2-propanediol product at relatively early reaction times, for comparison with ISES predictions.
A typical procedure follows: To the Co(III)-salen catalyst derived from 7e (5.4 mg, 5.4 μmol, 0.25 mol %) and (±)-propylene oxide (125 mg, 2.15 mmol) at 0° C., was added water (21 μL, 1.18 mmol, 0.55 equiv.). The reaction mixture was securely capped, and allowed to warm to room temperature and stirred, most commonly for a total of 3 hours. Percent conversion at 3 hours was evaluated by 1H NMR of an aliquot (cooled to 0° C. for the transfer), in CDCl3. In most of these cases, the conversion was low enough after 3 hours, that the unreacted epoxide (bp 32° C.) was of relatively low ee, and was therefore removed by evaporation under aspirator vacuum. When the conversion was less than 5% by NMR after 3 hours, reactions were continued for longer times.
Upon termination of the reaction, the diol product was isolated by Kugelrohr distillation (˜120° C.-oven temp; 0.1 torr). To determine ee, the isolated diol was derivatized using p-bromobenzoyl imidazole (2.2 equiv.) in THF in the presence of NaH (4 equiv.) at room temperature for 5 min. The bis(p-bromobenzoate) esters obtained following sequential washes with 1 N HCl and saturated sodium bicarbonate, were of sufficient purity to be used directly for chiral HPLC analysis (Chiralcel OD, 99% […]). [drawing 23] [drawing 24] [drawing 25] [drawing 26] [drawing 27]

[4] = Double cuvette-ISES (in situ enzymatic screening) of Co(III)-salen mediated HKR of (±)-propylene oxide; details: bilayer of pH 8.6 buffer over 7.2 M epoxide in CHCl3, 0.25 mol % catalyst, 15-35 min; + = (S), − = (R)
Description: Aqueous reporting layers. containing TBADH/NADP+ (cuvette 1) and HLADH/NAD+ (cuvette 2), respectively, are then added. The increase in absorbance at 340 nm can be followed for several such sets in parallel by UV-vis spectrophotometry. The kinetic data are then used to make the double-cuvette ISES predictions.
A general procedure for double cuvette-ISES to estimate both enantioselectivities and relative rates for an array of catalysts being screened in parallel is presented below. The hydrolytic kinetic resolution (HKR) of (±) propylene oxide was chosen as model reaction.
Typically, quartz cuvettes with one cm light paths and with nominal one mL volumes were used. For each catalyst, a two cuvette screen was performed, with cuvette A containing HLADH, as (S)-propanediol-selective reporting enzyme, and cuvette B containing TBADH, as a (R)-propanediol-selective reporting enzyme. For each cuvette, the final volume was 800 μL (300 μL of organic layer; 500 μL of aqueous layer).
Both cuvettes A and B had the following composition: 150 μL (2.15 mmol) of (±)-propylene oxide (7.2 M in organic layer), 150 μL of CHCl3 and 0.25 mol % Co(III)-salen catalyst. The total organic layer volume was maintained as 300 μL in all catalyst screens.
(i) Cuvette A: 0.35 U HLADH (17.6 μL from a stock solution (0.02U/μL)), 7.2 mM β-NAD+(16.5 μL from a 220 mM stock) and 465.8 μL of 50 mM sodium pyrophosphate buffer, pH 8.8. The final pH was 8.6.
(ii) Cuvette B: 0.35 U TBADH (15.8 μL from a stock solution (0.022U/μL)) of, 2.2 mM β-NADP+ (5 μL from a 220 mM stock) and 479.5 μL of 50 mM sodium pyrophosphate buffer, pH 8.8. The final pH was 8.6. The total volume of the aqueous layer was maintained as 500 μL in both cuvettes in all ISES experiments.
C. Step by Step Protocol: A catalyst stock solution (22 μmol of catalyst in 620 μL CHCl3) was made up in a 1.5 ml microcentrifuge tube, and stored on ice, along with a stock of (±)-propylene oxide, in a separate tube. The organic layers were prepared by briefly vortexing 150 μL (5.4 μmol, 0.25 mol %) of the catalyst stock in CHCl3 with 150 μL (2.15 mmol) of (±)-propylene oxide in iced microcentrifuge tubes. These were loaded into 1 mL quartz cuvettes using precooled (refrigerator), disposable 1 mL syringes. The aqueous layers were then layered on top of the organic layers, by syringe, down the walls of the cuvette.

[5] = [total 1,2-propanediol] in aqueous ISES layer by 1H NMR; details: for [diol] (mM) @ 15 min: aqueous ISES layer, 1H NMR, t = 15 min; for Norm.: normalized to the catalyst derived from salen 3b (rate 1.0)
Description: The concentration of 1,2-propanediol in the aqueous layer was estimated under typical ISES conditions using 1H NMR spectroscopy. The bilayer was prepared as usual for double cuvette-ISES (Section V), but for the substitution of D2O for H2O in the buffer, and the elimination of the dehydrogenase enzymes. After 15 min, the aqueous layer (300 μL of 500 μL total) was withdrawn and mixed with a fresh solution of imidazole of known concentration (also 300 μL in D2O), as an internal concentration standard. Accumulation of the 1H NMR spectrum, followed by integration and quantitation, provided an experimental measure of [total diol] in the aqueous reporting layer at t=15 minutes for the catalyst under investigation. The observed diol concentrations for ten catalysts examined in this way are collected in Table S6, below. These have been normalized to the value for the catalyst derived from salen 3b (arbitrarily assigned a rate of 1.0).

[6] = reaction stopped at the time given (mostly 3 h), + = (S), − = (R)

T2 sequence (P00327 whole entry): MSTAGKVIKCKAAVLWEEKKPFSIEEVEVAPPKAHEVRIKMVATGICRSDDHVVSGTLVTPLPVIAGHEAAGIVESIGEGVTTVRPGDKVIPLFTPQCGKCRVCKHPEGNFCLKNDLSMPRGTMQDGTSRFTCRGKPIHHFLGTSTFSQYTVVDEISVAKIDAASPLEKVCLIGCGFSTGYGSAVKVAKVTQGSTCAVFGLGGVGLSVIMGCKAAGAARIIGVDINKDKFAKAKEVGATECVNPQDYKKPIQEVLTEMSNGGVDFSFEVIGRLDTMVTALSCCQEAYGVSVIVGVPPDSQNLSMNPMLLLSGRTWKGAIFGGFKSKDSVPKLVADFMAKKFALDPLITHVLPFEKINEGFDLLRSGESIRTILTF

Compound: CC(O)CO (stereo not drawn) [1,2-Propanediol]
- vR/vS of TBADH ([1]; 1,2-propanediol conc. 3 mM, 25° C.): 10.8
- vR/vS of TBADH ([1]; 1,2-propanediol conc. 6 mM): 8.9
- vR/vS of TBADH ([1]; 1,2-propanediol conc. 10 mM): 9.9
- vR/vS of TBADH ([1]; 1,2-propanediol conc. 20 mM): 10.6
- vR/vS of TBADH ([1]; 1,2-propanediol conc. 30 mM): 9.1
- vR/vS of TBADH ([1]; 1,2-propanediol conc. 40 mM): 8.4
- vR/vS of TBADH ([1]; 1,2-propanediol conc. 50 mM): 9.0
- vR/vS of TBADH ([1]; 1,2-propanediol conc. 60 mM): 9.1
- vR/vS of TBADH ([1]; 1,2-propanediol conc. 80 mM): 8.6
- vS/vR of HLADH ([2]; 1,2-propanediol conc. 4 mM, 25° C.): 4.0
- vS/vR of HLADH ([2]; 1,2-propanediol conc. 8 mM): 3.6
- vS/vR of HLADH ([2]; 1,2-propanediol conc. 12 mM): 2.8
- vS/vR of HLADH ([2]; 1,2-propanediol conc. 16 mM): 2.4
- vS/vR of HLADH ([2]; 1,2-propanediol conc. 20 mM): 2.7
- vS/vR of HLADH ([2]; 1,2-propanediol conc. 30 mM): 2.8
- vS/vR of HLADH ([2]; 1,2-propanediol conc. 40 mM): 3.0
- vS/vR of HLADH ([2]; 1,2-propanediol conc. 50 mM): 2.7
- vS/vR of HLADH ([2]; 1,2-propanediol conc. 100 mM): 2.6

Compound: C[C@@H](O)CO [(R)-1,2-propanediol]
- enantiomeric preference of TBADH [1]: significant preference
- Km [1]: 17 ± 2 mM
- Vmax [1]: 487±18 mAbs min−1
- Km [2]: 25 ± 2 mM
- Vmax [2]: 355±9 mAbs min−1

Compound: C[C@H](O)CO [(S)-1,2-propanediol]
- Km [1]: 23 ± 4 mM
- Vmax [1]: 60±4 mAbs min−1
- Km [2]: 16 ± 1 mM
- Vmax [2]: 819±20 mAbs min−1

Compound: CC(C)(C)c1cc(C=NC[C@H](Cc2ccc3ccccc3c2)N=Cc2cc(C(C)(C)C)cc(C(C)(C)C)c2O)c(O)c(C(C)(C)C)c1 [Salen 5a, N,N′-Bis(3′,5′-di-tert-butylsalicylidene)-(1S)-(β-naphthylmethyl)-1,2-ethylenediamine]
- NMR conv. (time) [3]: 36 (3 h) %
- % ee (HPLC) [3, 6]: +66 (S) % ee
- % ee of the 1,2-propanediol product, as observed by chiral HPLC (lower number) ([3]; + = (S), − = (R)): +66 % ee
- % ee of the 1,2-propanediol product, as predicted by double-cuvette ISES (upper number) [4]: +87 % ee
- [diol] (mM) @ 15 min [5]: 52.5 mM
- Norm. [5]: 0.55

Compound: CC(C)(C)c1cccc(C=NC[C@H](Cc2ccc3ccccc3c2)N=Cc2cccc(C(C)(C)C)c2O)c1O [Salen 5b, N,N′-Bis(3′-tert-butylsalicylidene)-(1S)-(β-naphthylmethyl)-1,2-ethylenediamine]
- NMR conv. (time) [3]: 45 (3 h) %
- % ee (HPLC) [3, 6]: +68 (S) % ee
- % ee of the 1,2-propanediol product, as observed by chiral HPLC (lower number) ([3]; + = (S), − = (R)): +68 % ee
- % ee of the 1,2-propanediol product, as predicted by double-cuvette ISES (upper number) [4]: +65 % ee
- [diol] (mM) @ 15 min [5]: 75.5 mM
- Norm. [5]: 0.79

Compound: Oc1c(C=NC[C@H](Cc2ccc3ccccc3c2)N=Cc2ccc3ccccc3c2O)ccc2ccccc12 [Salen 5d, N,N′-Bis(1′-hydroxy-2′-naphthylidene)-(1S)-(β-naphthylmethyl)-1,2-ethylenediamine]
- NMR conv. (time) [3]: 10 (3 h) %
- % ee (HPLC) [3, 6]: +11 (S) % ee
- % ee of the 1,2-propanediol product, as observed by chiral HPLC (lower number) ([3]; + = (S), − = (R)): +11 % ee
- % ee of the 1,2-propanediol product, as predicted by double-cuvette ISES (upper number) [4]: +9 % ee
- [diol] (mM) @ 15 min [5]: 54 mM
- Norm. [5]: 0.56

Compound: N,N′-Bis(1′-hydroxy-2′-naphthylidene)-[1R-(1α,2α,5α)]-2-amino-7,7-dimethyl-2-bicyclo[3.3.1]heptane-ethanamine [Salen 1d]
- % ee (HPLC) ([3]; @1 h): +81@1 h, % ee
- % ee (HPLC) ([3]; @3 h): +67@3 h (S) % ee
- % ee of the 1,2-propanediol product, as observed by chiral HPLC (lower number) ([3]; + = (S), − = (R)): +81 % ee
- % ee of the 1,2-propanediol product, as predicted by double-cuvette ISES (upper number) [4]: +75 % ee
- [diol] (mM) @ 15 min [5]: 91 mM
- Norm. [5]: 0.95
